Legend:
[1] = tested on: soil cultures; type: cell-based; conditions: soil cultures of Example 6 after 32 hours of growth
[2] = pH, Eh and total chromium of soil cultures after growth; type: physicochemical; conditions: cell-free supernatants, after 32 hours of growth
Experimental: Immediately after collection in sterile containers, the soil samples were stored at 4° C. for 30 days before use. Soil dilutions (10^-1 g/mL) were made in sterile isotonic phosphate buffer. One mL of each soil dilution was inoculated into 165 mL sealed serum vials containing 50 mL of TSB with N2 in the headspace. The serum vials and their contents were sterilized prior to inoculation.
Cr(VI) was added to the culture broth as K2 CrO4 to a final concentration of about 20 mg/L of Cr(VI). Cultures were incubated, at 30° C. on a gyratory shaker at 100 rpm, in an inverted position to limit gas leakage. Samples were analyzed periodically for Cr(VI) concentration and cell density.
After 32 hours of growth, pH, Eh, and total chromium levels of the cultures of Example 6 were determined. The initial pH of TSB was 7.04. Eh was measured with a platinum electrode (Microelectrodes, Inc., Londonderry, N.H.) using an ACCUMET 50 digital pH meter (Fisher Scientific, Pittsburgh, Pa.). Total chromium was analyzed with inductively coupled plasma emission spectroscopy (Model 3410, ARL) of clarified cultures.

[Cr+3] [Cr(III)]
bacterial growth inhibition related to Cr(III) [1]: no evidence of Cr(III) precipitating out of solution or bacterial growth inhibition related to Cr(III) | Cr(III) precipitation out of solution [2]: no evidence of Cr(III) precipitating out of solution
